Source: patent US7597692B2, “Microscission processes and procedures” (Massachusetts Institute of Technology, priority 2000, dated 2009)

Tested on: Subject B site (forearm microconduit)
Experiment: Lidocaine applied on forearm microconduit site, anesthetic effect (Example 3)
Format: in vivo, human
Settings: 3% lidocaine applied on Subject B microconduit site

Compound: CCN(CC)CC(=O)Nc1c(C)cccc1C [lidocaine]
- anesthetic effects: No discernible anesthetic effects were observed
